Data on 21 compounds can be found in patent US20240174690A1, “ANNULATED 2-AMINO-3-CYANO THIOPHENES AND DERIVATIVES FOR THE TREATMENT OF CANCER” (BOEHRINGER INGELHEIM INTERNATIONAL GMBH, priority 2021, published 2024).

Some results are limits rather than exact numbers.

Series [1] deals with KRAS G12C-dependent Ba/F3 cells. Nature of the series: Ba/F3 proliferation assay, KRAS G12C. Type of series: cell-based. The note with it: Mus musculus, BaF3, 72 h, AlamarBlue. The method, then:
Plasmids containing KRASG12 mutants (i.e. […], G12C, G12V) are obtained from GeneScript. To generate KRASG12-dependent Ba/F3 models, Ba/F3 cells are transduced with retroviruses containing vectors that harbor KRASG12 isoforms. Platinum-E cells (Cell Biolabs) are used for retrovirus packaging. Retrovirus is added to Ba/F3 cells. To ensure infection, 4 μg/mL polybrene is added and cells are spinfected. […] Cells with an infection efficiency of 10% to 20% are further cultivated and puromycin selection with 1 μg/mL is initiated. As a control, parental Ba/F3 cells are used to show selection status. Selection is considered successful when parental Ba/F3 cells cultures died. To evaluate the transforming potential of KRASG12 mutations, the growth medium is no longer supplemented with IL-3. Ba/F3 cells harboring the empty vector are used as a control. Approximately ten days before conducting the experiments, puromycin is left out.
Compounds are added using an Access Labcyte Workstation with a Labcyte Echo 550 or 555 accoustic dispenser. All treatments are performed in technical duplicates. […] AlamarBlue™ (ThermoFisher), a viability stain, is added and fluorescence measured in the PerkinElmer Envision HTS Multilabel Reader. The raw data are imported into and analyzed with the Boehringer Ingelheim proprietary software MegaLab (curve fitting based on the program PRISM, GraphPad Inc.).
(In general: The colour change of resazurin is a common sign of viable cells or microbes.)

For the next series, the system named is NCI-H2122 cells. The series is described as follows: NCI-H2122 CTG proliferation assay (120 h) (NSCLC, G12C). Type of series: cell-based. As to conditions: Homo sapiens. The method, then:
NCI-H2122 CTG Proliferation Assay (120 h) (NSCLC, G12C)
The CTG assay is designed to measure quantitatively the proliferation of NCI-H2122 cells (ATCC CRL-5985), using the CellTiter Glow Assay Kit (Promega G7571). Cells are grown in RPMI medium (ATCC) supplemented with Fetal Calf Serum (Life Technologies, Gibco BRL, Cat. No. 10270-106). On “day 0” 200 NCI-H2122 cells are seeded in 60 μL RPMI ATCC+10% FCS+Penstrep in a black 384-well plate, flat and clear bottom (Greiner, PNr. 781091). Cells are then incubated in the plates at 37° C. in a CO2 incubator overnight. On day 1, compounds (10 mM stock in DMSO) are added with the ECHO acoustic liquid handler system (Beckman Coulter), including DMSO controls. Plates are incubated for 120 h, and cell viability is measured using CellTiter-Glo luminescent cell viability reagent (Promega product code G7570). Viability (stated as percent of control) is defined as relative luminescence units RLU of each well divided by the RLU of cells in DMSO controls. IC50 values are determined from viability measurements by non-linear regression using a four parameter model.

For another series, the system named is SK-CO-1 cells. The series is described as follows: SK-CO-1 CTG proliferation assay (120 h) (CRC, G12V). Type of series: cell-based. As to conditions: Homo sapiens; SK-CO-1 cells (CRC, G12V), CTG 120 h. The method, then:
SK-CO-1 CTG Proliferation Assay (120 h) (CRC, G12V)
SK-CO-1 cells (ATCC HTB-39) are dispensed into 384-well plates, flat and clear bottom (Greiner, PNr. 781091) at a density of 500 cells per well in 60 μL EMEM (Sigma M5650)+10% Fetal Calf Serum (HyClone, PNr.: SH30084.03) and incubated at 37° C. in a CO2 incubator overnight. The next day, compounds (10 mM stock in DMSO) are added with the ECHO acoustic liquid handler system (Beckman Coulter), including DMSO controls. Plates are incubated for 120 h, and cell viability is measured using CellTiter-Glo luminescent cell viability reagent (Promega product code G7570). Viability (stated as percent of control) is defined as relative luminescence units RLU of each well divided by the RLU of cells in DMSO controls. IC50 values are determined from viability measurements by non-linear regression using a four-parameter model.

Series [2] is described as follows: Metabolic (microsomal) stability assay, human liver microsomes (HLM). As to conditions: predicted clearance as percent of liver blood flow, 1 μM. Type of series: in vitro ADME. The method, then: The metabolic degradation of the test compound is assayed at 37° C. with pooled liver microsomes (mouse (MLM), rat (RLM) or human (HLM)). The final incubation volume of 48 μL pertime point contains TRIS buffer (pH 7.5; 0.1 M), magnesium chloride (6.5 mM), microsomal protein (0.5 mg/mL for mouse/rat, 1 mg/mL for human specimens) and the test compound at a final concentration of 1 μM. Following a short preincubation period at 37° C., the reactions are initiated by addition of 12 μL beta-nicotinamide adenine dinucleotide phosphate, reduced form (NADPH, 10 mM) and terminated by transferring an aliquot into solvent after different time points (0, 5, 15, 30, 60 min). Additionally, the NADPH-independent degradation is monitored in incubations without NADPH, terminated at the last time point by addition of acetonitrile. The quenched incubations are pelleted by centrifugation (4,000 rpm, 15 min). An aliquot of the supernatant is assayed by LC-MS/MS to quantify the concentration of parent compound in the individual samples.
In vitro intrinsic clearance (CLint, in vitro) is calculated from the time course of the disappearance of the test drug during the microsomal incubation. Each plot is fitted to the first-order elimination rate constant as C(t)═C0*exp(−ke*t), where C(t) and C0 are the concentration of unchanged test drug at incubation time t and that at preincubation and ke is the disappearance rate constant of the unchanged drug. Subsequently, CLint in vitro (μL min^−1·amount protein) values are converted to predicted CLint,in vivo (mL min^−1 kg^−1) from incubation parameters according to the equation CLint, in vivo=CLint, in vitro×(incubation volume (ml)/amount protein (mg))×(amount protein (mg)/g liver tissue)×(liver weight/body wt.).
For better across species comparison the predicted clearance is expressed as percent of the liver blood flow [% QH] (mL min^−1·kg^−1) in the individual species. In general, high stability (corresponding to low % QH) of the compounds across species is desired.

With `C[C@H](Oc1cc(N2CCOC3(COC3)C2)nc(-c2noc3c2CCC[C@@]32CCCc3sc(N)c(C#N)c32)n1)[C@@H]1CCCN1C` [II-77], the half-maximal inhibitory concentration (IC50) (in general, the midpoint of a concentration-inhibition curve) in series [1] was determined as 14 nM; in the series with NCI-H2122 cells, 1780 nM; in the series on SK-CO-1 cells it was 40 nM. In addition, the “HLM QH” value in series [2] is 34%.
For the compound `C[C@H](Oc1cc(N2CCOC3(CC3)C2)nc(-c2noc3c2CCC[C@@]32CCCc3sc(N)c(C#N)c32)n1)[C@@H]1CCCN1C` [II-61], the concentration for half-maximal inhibition (IC50) was 47 nM in series [1], 2340 nM with NCI-H2122 cells and 192 nM in the series with SK-CO-1 cells. Moreover, the “HLM QH” value in series [2] is <24%.
Turning to `C[C@H](Oc1cc(N2CCCC3(COC3)C2)nc(-c2noc3c2CCC[C@@]32CCCc3sc(N)c(C#N)c32)n1)[C@@H]1CCCN1C` [II-72], the IC50 was 22 nM in series [1], 2250 nM in the series with NCI-H2122 cells and 71 nM in the series with SK-CO-1 cells. For the same compound, in series [2], the “HLM QH” value is given as 41%.
Taken in the same sequence, the figures for `C[C@H](Oc1cc(-n2cnc3cccnc32)nc(-c2noc3c2CCC[C@@]32CCCc3sc(N)c(C#N)c32)n1)[C@@H]1CCCN1C` [II-65] were 97 nM, 2550 nM, 360 nM and <24%.
In the case of `C[C@H](Oc1cc(-n2ccncc2=O)nc(-c2noc3c2CCC[C@@]32CCCc3sc(N)c(C#N)c32)n1)[C@@H]1CCCN1C` [II-116], the concentration for half-maximal inhibition (IC50) in series [1] was 6 nM; with NCI-H2122 cells, 1120 nM; in the series with SK-CO-1 cells, 64 nM. Moreover, the “HLM QH” value in series [2] is 75%.
Taken in the same sequence, the figures for `C[C@H](Oc1cc(-n2ccnc2Cl)nc(-c2noc3c2CCC[C@@]32CCCc3sc(N)c(C#N)c32)n1)[C@@H]1CCCN1C` [II-93] were 16 nM, 1560 nM, 140 nM and 44%.
Regarding `Cc1nccn1-c1cc(O[C@@H](C)[C@@H]2CCCN2C)nc(-c2noc3c2CCC[C@@]32CCCc3sc(N)c(C#N)c32)n1` [II-79], the concentration for half-maximal inhibition (IC50) in series [1] is 24 nM; with NCI-H2122 cells, 1270 nM; in the series with SK-CO-1 cells, 188 nM. The “HLM QH” value in series [2] is reported as 45%.
For `C[C@H](Oc1cc(-c2cn(C3CCOCC3)nn2)nc(-c2noc3c2CCC[C@@]32CCCc3sc(N)c(C#N)c32)n1)[C@@H]1CCCN1C` [II-115], 29 nM corresponded to half-maximal inhibition in series [1] (IC50). The “HLM QH” value in series [2] is <24%.
Take `C[C@H](Oc1cc(-c2cncs2)nc(-c2noc3c2CCC[C@@]32CCCc3sc(N)c(C#N)c32)n1)[C@@H]1CCCN1C` [II-80]: the 50% inhibitory concentration (IC50) is 21 nM in series [1], 1670 nM with NCI-H2122 cells and 148 nM with SK-CO-1 cells. For the same compound, the “HLM QH” value in series [2] was 30%.
The matching figures for `C[C@H]1CN(C)CCCN1c1cc(N2CCN(C)CC2)nc(-c2onc3c2CCC[C@@]32CCCc3sc(N)c(C#N)c32)n1` [I-7]: 608 nM, 3460 nM, 1490 nM and <24%.
Consider `C[C@H](Oc1cc(N2CCNC2=O)nc(-c2noc3c2CCC[C@@]32CCCc3sc(N)c(C#N)c32)n1)[C@@H]1CCCN1C` [II-64], for which the IC50 is 9 nM in series [1], 6360 nM with NCI-H2122 cells and 24 nM in the series on SK-CO-1 cells. In addition, the “HLM QH” value in series [2] is on record as 27%.
Consider `C[C@H](Oc1cc(N2CCN3CCC3C2)nc(-c2onc3c2CCC[C@@]32CCCc3sc(N)c(C#N)c32)n1)[C@@H]1CCCN1C` (stereo partly shown) [I-9], for which the 50% inhibitory concentration (IC50) in series [1] was 264 nM; in the series on NCI-H2122 cells, 3340 nM; with SK-CO-1 cells, 10800 nM. The “HLM QH” value in series [2] is <24%.
Taken in the same sequence, the figures for `C[C@H](Oc1cc(-n2cc(Cn3cncn3)nn2)nc(-c2noc3c2CCC[C@@]32CCCc3sc(N)c(C#N)c32)n1)[C@@H]1CCCN1C` [II-124] were 9 nM, 901 nM, 38 nM and 37%.
The matching figures for `C[C@H](Oc1cc(-c2ccc(N)nc2)nc(-c2noc3c2CCC[C@@]32CCCc3sc(N)c(C#N)c32)n1)[C@@H]1CCCN1C` [II-101]: 51 nM, 1520 nM, 257 nM and 31%.
The matching figures for `C[C@H](Oc1cc(N2CCNC[C@@]23CCOC3)nc(-c2noc3c2CCC[C@@]32CCCc3sc(N)c(C#N)c32)n1)[C@@H]1CCCN1C` [II-51]: 314 nM, 2560 nM, 772 nM and 37%.
For `C[C@H](Oc1cc(-n2cccc3cnnc2-3)nc(-c2noc3c2CCC[C@@]32CCCc3sc(N)c(C#N)c32)n1)[C@@H]1CCCN1C` [II-92], the IC50 in series [1] amounted to 47 nM; in the series on NCI-H2122 cells, 1810 nM; with SK-CO-1 cells, 279 nM. Moreover, in series [2], the “HLM QH” value is reported as <24%.
Turning to `C[C@H](Oc1cc(-c2cn(C3COC3)nn2)nc(-c2noc3c2CCC[C@@]32CCCc3sc(N)c(C#N)c32)n1)[C@@H]1CCCN1C` [II-100], the IC50 in series [1] worked out at 19 nM; in the series with NCI-H2122 cells, 2140 nM; in the series with SK-CO-1 cells, 257 nM. Besides, the “HLM QH” value in series [2] was 28%.
For the compound `C[C@H](Oc1cc(-c2ccn(-c3ccsc3)n2)nc(-c2noc3c2CCC[C@@]32CCCc3sc(N)c(C#N)c32)n1)[C@@H]1CCCN1C` [II-84], the half-inhibitory concentration (IC50) was found to be 36 nM in series [1], 583 nM in the series with NCI-H2122 cells and 116 nM in the series on SK-CO-1 cells. Besides, the “HLM QH” value in series [2] is <24%.
Taken in the same sequence, the figures for `C[C@H](Oc1cc(N2CCc3cccnc32)nc(-c2noc3c2CCC[C@@]32CCCc3sc(N)c(C#N)c32)n1)[C@@H]1CCCN1C` [II-90] were 157 nM, 1860 nM, 451 nM and <24%.
The matching figures for `C[C@H](Oc1cc(-c2ccn(C3COC3)n2)nc(-c2noc3c2CCC[C@@]32CCCc3sc(N)c(C#N)c32)n1)[C@@H]1C[C@H](F)CN1C` [II-83]: 15 nM, 3820 nM, 447 nM and 72%.
On to `C[C@H](Oc1cc(-n2cc(Cn3ccnc3)nn2)nc(-c2noc3c2CCC[C@@]32CCCc3sc(N)c(C#N)c32)n1)[C@@H]1CCCN1C` [II-113], for which the 50% inhibitory concentration (IC50) in series [1] is 25 nM; in the series on NCI-H2122 cells it was 661 nM; in the series on SK-CO-1 cells, 64 nM. The “HLM QH” value in series [2] is listed as 43%.
